# Assay results published in patent publication US7118895B2, “Process for producing aglycon by using diglycosidase and flavor-improved food containing the aglycon and converting agent to be used in the process” (Amano Enzyme Inc., priority 2000, dated 2006).
# Tested on: Crude diglycosidase
# Assay: Examination of pH in the conversion into isoflavone aglycons by diglycosidase using soybean materials
# Format: biochemical, Penicillium multicolor IAM7153
# Set-up: Decomposition efficiency of genistin family in soymilk / Decomposition efficiency of genistin family in defatted soybean / Decomposition efficiency of daidzin family in defatted soybean: concentration or dose not given beside the values
# How it was run: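 HPLC detection of isoflavone glycosides and aglycons after ethanol quench at 0, 1, 3 and 6 h. Reactions ran at 55° C over pH 2–11, with crude diglycosidase (enzyme solution at 1.88 AU/mL) added to suspended roasted soy flour, soymilk, defatted soybean or concentrated soy protein.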
smiles,measurement,setting,value
O=c1c(-c2ccc(O)cc2)coc2cc(O)cc(O)c12 [genistein],Decomposition efficiency of genistin family in defatted soybean,"pH2.6, heat treatment of enzyme: no, reaction time 1 h",17.7%
same,Decomposition efficiency of genistin family in defatted soybean,"pH2.6, heat treatment of enzyme: no, reaction time 3 h",32.7%
same,Decomposition efficiency of genistin family in defatted soybean,"pH2.6, heat treatment of enzyme: no, reaction time 6 h",34.6%
same,Decomposition efficiency of genistin family in defatted soybean,"pH3.4, heat treatment of enzyme: no, reaction time 1 h",56.9%
same,Decomposition efficiency of genistin family in defatted soybean,"pH3.4, heat treatment of enzyme: no, reaction time 3 h",62.5%
same,Decomposition efficiency of genistin family in defatted soybean,"pH3.4, heat treatment of enzyme: no, reaction time 6 h",68.8%
same,Decomposition efficiency of genistin family in defatted soybean,"pH3.4, heat treatment of enzyme: yes, reaction time 6 h",14.1%
same,Decomposition efficiency of genistin family in defatted soybean,"pH4.8, heat treatment of enzyme: no, reaction time 0 h",14.5%
same,Decomposition efficiency of genistin family in defatted soybean,"pH4.8, heat treatment of enzyme: no, reaction time 1 h",56.1%
same,Decomposition efficiency of genistin family in defatted soybean,"pH4.8, heat treatment of enzyme: no, reaction time 3 h",61.9%
same,Decomposition efficiency of genistin family in defatted soybean,"pH4.8, heat treatment of enzyme: no, reaction time 6 h",68.5%
same,Decomposition efficiency of genistin family in defatted soybean,"pH4.8, heat treatment of enzyme: yes, reaction time 6 h",25.2%
same,Decomposition efficiency of genistin family in defatted soybean,"pH5.4, heat treatment of enzyme: no, reaction time 0 h",14.5%
same,Decomposition efficiency of genistin family in defatted soybean,"pH5.4, heat treatment of enzyme: no, reaction time 1 h",51.5%
same,Decomposition efficiency of genistin family in defatted soybean,"pH5.4, heat treatment of enzyme: no, reaction time 3 h",55.4%
same,Decomposition efficiency of genistin family in defatted soybean,"pH5.4, heat treatment of enzyme: no, reaction time 6 h",60.3%
same,Decomposition efficiency of genistin family in defatted soybean,"pH5.4, heat treatment of enzyme: yes, reaction time 6 h",48.0%
same,Decomposition efficiency of genistin family in defatted soybean,"pH6.6, heat treatment of enzyme: no, reaction time 1 h",49.3%
same,Decomposition efficiency of genistin family in defatted soybean,"pH6.6, heat treatment of enzyme: no, reaction time 3 h",51.4%
same,Decomposition efficiency of genistin family in defatted soybean,"pH6.6, heat treatment of enzyme: no, reaction time 6 h",53.7%
same,Decomposition efficiency of genistin family in defatted soybean,"pH6.6, heat treatment of enzyme: yes, reaction time 6 h",46.4%
same,Decomposition efficiency of genistin family in defatted soybean,"pH7.8, heat treatment of enzyme: no, reaction time 1 h",36.7%
same,Decomposition efficiency of genistin family in defatted soybean,"pH7.8, heat treatment of enzyme: no, reaction time 3 h",42.5%
same,Decomposition efficiency of genistin family in defatted soybean,"pH7.8, heat treatment of enzyme: no, reaction time 6 h",45.7%
same,Decomposition efficiency of genistin family in defatted soybean,"pH7.8, heat treatment of enzyme: yes, reaction time 6 h",22.0%
